{
  "source": "BindingDB's records for doi:10.1021/jm00039a008",
  "about": "(Albany Molecular Research, 1994)",
  "note": "Where a name gives a salt, the structure may show the parent alone.",
  "data": [
    {"assay": "Binding affinity was measured as selectivity for sigma-1 site over muscarinic (M1) receptor in rat", "units": {"Ki": "nM"}, "values": [
      {"smiles": "COc1ccc2c(c1)[C@]13CCCC[C@@H]1[C@H](C2)N(C)CC3", "note": "[DEXTROMETHORPHAN]", "Ki": 5070}
    ]},
    {"assay": "Affinity at sigma-1 site by inhibition of [3H](+)-pentazocine (PENT) binding in guinea pig brain", "units": {"Ki": "nM"}, "values": [
      {"smiles": "O=C(OCCN1CCN(c2ccccc2)CC1)C1(c2ccc(Cl)cc2)CCCC1", "note": "[1-(4-Chloro-phenyl)-cyclopentanecarboxylic acid 2-(4-phenyl-piperazin-1-yl)-ethyl ester; hydrochloride]", "Ki": 77},
      {"smiles": "O=C(OCCN1CCC(c2ccccc2)CC1)C1(c2ccc(Cl)cc2)CCCC1", "note": "[1-(4-Chloro-phenyl)-cyclopentanecarboxylic acid 2-(4-phenyl-piperidin-1-yl)-ethyl ester; hydrochloride]", "Ki": 1.3},
      {"smiles": "O=C(OCCCN1CCC(c2ccccc2)CC1)C1(c2ccc(Cl)cc2)CCCC1", "note": "[1-(4-Chloro-phenyl)-cyclopentanecarboxylic acid 3-(4-phenyl-piperidin-1-yl)-propyl ester; hydrochloride]", "Ki": 1.5},
      {"smiles": "N#Cc1ccc(C2(C(=O)OCCN3CCC(c4ccccc4)CC3)CCCC2)cc1", "note": "[1-(4-Cyano-phenyl)-cyclopentanecarboxylic acid 2-(4-phenyl-piperidin-1-yl)-ethyl ester; hydrochloride]", "Ki": 1.3},
      {"smiles": "O=C(OCCN1CCN(c2ccccc2)CC1)C1(c2ccc(I)cc2)CCCC1", "note": "[1-(4-Iodo-phenyl)-cyclopentanecarboxylic acid 2-(4-phenyl-piperazin-1-yl)-ethyl ester; hydrochloride]", "Ki": 23},
      {"smiles": "O=C(OCCN1CCC(c2ccccc2)CC1)C1(c2ccc(I)cc2)CCCC1", "note": "[1-(4-Iodo-phenyl)-cyclopentanecarboxylic acid 2-(4-phenyl-piperidin-1-yl)-ethyl ester; hydrochloride]", "Ki": 1.4},
      {"smiles": "O=C(OCCCN1CCC(c2ccccc2)CC1)C1(c2ccc(I)cc2)CCCC1", "note": "[1-(4-Iodo-phenyl)-cyclopentanecarboxylic acid 3-(4-phenyl-piperidin-1-yl)-propyl ester; hydrochloride]", "Ki": 0.88},
      {"smiles": "COc1ccc(C2(C(=O)OCCN3CCC(c4ccccc4)CC3)CCCC2)cc1", "note": "[1-(4-Methoxy-phenyl)-cyclopentanecarboxylic acid 2-(4-phenyl-piperidin-1-yl)-ethyl ester; hydrochloride]", "Ki": 1},
      {"smiles": "COc1ccc(C2(C(=O)OCCCN3CCC(c4ccccc4)CC3)CCCC2)cc1", "note": "[1-(4-Methoxy-phenyl)-cyclopentanecarboxylic acid 3-(4-phenyl-piperidin-1-yl)-propyl ester; hydrochloride]", "Ki": 0.65},
      {"smiles": "O=C(OCCN1CCN(c2ccccc2)CC1)C1(c2ccc([N+](=O)[O-])cc2)CCCC1", "note": "[1-(4-Nitro-phenyl)-cyclopentanecarboxylic acid 2-(4-phenyl-piperazin-1-yl)-ethyl ester; hydrochloride]", "Ki": 2.8},
      {"smiles": "O=C(OCCCN1CCC(c2ccccc2)CC1)C1(c2ccc([N+](=O)[O-])cc2)CCCC1", "note": "[1-(4-Nitro-phenyl)-cyclopentanecarboxylic acid 3-(4-phenyl-piperidin-1-yl)-propyl ester; hydrochloride]", "Ki": 0.27},
      {"smiles": "O=C(OCCN1CCN(c2ccccc2)CC1)C1(c2ccccc2)CCCC1", "note": "[1-Phenyl-cyclopentanecarboxylic acid 2-(4-phenyl-piperazin-1-yl)-ethyl ester; hydrochloride]", "Ki": 63},
      {"smiles": "O=C(OCCN1CCC(c2ccccc2)CC1)C1(c2ccccc2)CCCC1", "note": "[1-Phenyl-cyclopentanecarboxylic acid 2-(4-phenyl-piperidin-1-yl)-ethyl ester; hydrochloride]", "Ki": 4},
      {"smiles": "O=C(OCCCCN1CCC(c2ccccc2)CC1)C1(c2ccccc2)CCCC1", "note": "[1-Phenyl-cyclopentanecarboxylic acid 4-(4-phenyl-piperidin-1-yl)-butyl ester; hydrochloride]", "Ki": 0.51},
      {"smiles": "O=C(OCCCCCCN1CCC(c2ccccc2)CC1)C1(c2ccccc2)CCCC1", "note": "[1-Phenyl-cyclopentanecarboxylic acid 6-(4-phenyl-piperidin-1-yl)-hexyl ester; hydrochloride]", "Ki": 1.2}
    ]}
  ]
}
